Measured values reported in patent publication US8242160B2, “Inhibitors of ubiquitin E1” (The United States of America, as represented by the …, priority 2005, dated 2012).
Where two headings read alike, the source gives them in different places.

How the values were obtained:
[1] = system: MEFs from p53-deficient mice; assay: Killing of MEFs from p53-deficient mice; type: cell-based, mouse
From the text: (§1) While p53 induces apoptotic cell death in many tumor cells, it generally only induces growth arrest in untransformed cells. This has been the rationale for many studies targeting the p53 system.

Nedd4 = assay: In vitro autoubiquitination of HECT E3 Nedd4; type: biochemical
Experimental: It was then evaluated whether 4-[4-(5-nitro-furan-2-ylmethylene)-3,5-dioxo-pyrazolidin-1-yl]-benzoic acid methyl acid blocks autoubiquitination of both RING finger E3s (Mdm2) and HECT E3s (Nedd4) in vitro.
5 pmole per experimental point of bacterially expressed GST-Mdm2 (or GST-Nedd) is coupled to glutathione Sepharose (GS) for 30 minutes at room temperature with tumbling, followed by 3× wash with 50 mM Tris pH 7.5. Following this, 20 μl of 1× buffer is added (40 μl 10× reaction buffer*, 40 μl 10× PCK**, 320 μl dH2O). The test compound in DMSO is then added to the desired concentration with an equal volume of DMSO used as a control. Samples are incubated with shaking for 1 hr at 23° C. To carry out the reaction, a pre-made cocktail of Rabbit E1 (Calbiochem #6620700)/UbCH5B/^32P Ub cocktail (1 μl/0.5 μl/1 μl) is added followed by 15 minutes shaking at 30° C. The reaction is terminated by addition of 8 μl 4× reducing SDS-PAGE loading buffer. After dissociating proteins from the beads at 100° C. for 2 minutes, samples are resolved on 6% PAGE followed by exposure of the dried gel to phosphor screen. Note: ^32P Ub is derived from GST-Ub that has been engineered to include a PKA phosphorylation site. This fusion protein is purified on glutathione Sepharose, phosphorylated, following this, the ^32P Ub ubiquitin is cleaved and purified away from the thrombin.

IκBα = assay: TNFα-induced IκBα degradation in cells; type: cell-based
p53 = assay: Cellular p53 level by immunoblotting; type: cell-based; conditions: six hours treatment; RPE cells
From the text: FIG. 5A depicts the increase in the levels of Mdm2 and p53 in RPE cells after treatment with the E1 inhibitor 4-[4-(5-nitro-furan-2-ylmethylene)-3,5-dioxo-pyrazolidin-1-yl]-benzoic acid methyl acid.

[2] = system: untransformed retinal pigment epithelial cells; assay: Growth of untransformed RPE cells, MTT assay; type: cell-based
From the text: FIG. 6A depicts the induction of growth arrest in untransformed RPE cells by 4-[4-(5-nitro-furan-2-ylmethylene)-3,5-dioxo-pyrazolidin-1-yl]-benzoic acid methyl […], as measured by MTT assay.
as §1

[3] = system: MEFs (mouse embryonic fibroblasts) that express wild type p53; assay: Killing of MEFs that express wild type p53; type: cell-based
From the text: as §1

GST-Mdm2 = assay: Standard Mdm2 in vitro ubiquitination assay (E1+E2+E3), gel-based with 32P-labeled ubiquitin; type: biochemical
From the text: The ability of a compound to inhibit E1 activity may also be examined by determining the ability of the compound to inhibit Mdm2 autoubiquitination, which is dependent on E1, as well as E2. For in vitro assays Mdm2 can be expressed as a GST fusion. This allows for a high level of expression of protein that can be purified on glutathione Sepharose. Detection of ubiquitination of Mdm2 can be accomplished, for example, using ^32P-labeled ubiquitin, Western blotting with anti-ubiquitin, or by looking at a shift in the molecular weight of GST fusion by Western blotting with anti-GST. A variety of in vitro assays that measure levels of self-ubiquitinated Mdm2 can be employed, such as for example, immunoprecipitation of ubiquitinated Mdm2; gel assays wherein the amount of ubiquitinated Mdm2 is measured by densitometric scanning or where covalent attachment of radio-labeled or otherwise tagged ubiquitin to Mdm2 or p53 is measured; Western blot analysis, or other known techniques such as ELISA, immunoprecipitation, RIA, and the like. […]

TRAF6 = assay: TNFα-induced TRAF6 ubiquitination, immunoprecipitation and immunoblotting; type: cell-based; conditions: T cell leukemia Jurkat
From the text: To determine whether 4-[4-(5-nitro-furan-2-ylmethylene)-3,5-dioxo-pyrazolidin-1-yl]-benzoic acid methyl acid blocks ubiquitination of TRAF6 in response to TNFα, TRAF6 was immunoprecipitated from the T cell leukemia Jurkat after TNFα treatment, followed by immunoblotting (FIG. 4C).

Question: What does the source list for COC(=O)c1ccc(N2NC(=O)/C(=C/c3ccc([N+](=O)[O-])o3)C2=O)cc1 [E1-41, 4-[4-(5-nitro-furan-2-ylmethylene)-3,5-dioxo-pyrazolidin-1-yl]-benzoic acid methyl acid]?
Answer: killing of MEFs from p53-deficient mice [1]: relatively resistant; autoubiquitination of Nedd4 (Nedd4): inhibits the autoubiquitination of Nedd4; TNFα-induced IκBα degradation (IκBα): prevents TNFα-induced IκBα degradation; cellular p53 level (p53): increased; effect on growth of untransformed retinal pigment epithelial cells [2]: causes growth arrest; killing of MEFs expressing wild type p53 [3]: only kills MEFs; Mdm2 autoubiquitination in vitro (high molecular weight species) (GST-Mdm2): prevent generation of high molecular weight species promoted by Mdm2 in a dose-dependent manner; Mdm2 autoubiquitination in vitro (high molecular weight species) (GST-Mdm2; listed as compound 41): inhibits autoubiquitination of Mdm2 in vitro; TNFα-induced ubiquitination of TRAF6 (TRAF6): effectively inhibited
